This is an account of results in patent US20260216177A1, “CO-DRUG, CO-ADMINISTRATION, AND SEQUENTIAL ADMINISTRATION OF SELECTIVE TTR LIGAND AND C20-D3-RETINOL FOR ELIMINATION OF MECHANISM-BASED OCULAR ADVERSE EFFECTS IN TREATING MACULAR DEGENERATION AND TTR AMYLOIDOSIS” (The Trustees of Columbia University in the City of New York, priority 2023, published 2026).

Entries after “also recorded” stand apart in the source; their conditions may differ.

The conditions of series [1]: cited from earlier work.
For series [2] the following is noted: in vitro; cited from earlier work.
A further series deals with Abca4-/- mouse model. The settings on record: cited from earlier work.
A further series relates to Balb/c mice. Kind of series: Retinal function by electroretinography (scotopic ERG a-wave) in treated Balb/c mice. In kind it is in vivo. The settings on record: 1.89 log cd*s/m2 light intensity; 25 mg/kg daily oral, 10 days.
A further series has as its system serum RBP4. The settings on record: mice; cited from earlier work.
In another series the test system is rhodopsin. Kind of series: Rhodopsin measured spectrophotometrically in retinal extracts of treated Balb/c mice. The format is in vivo. The settings on record: Balb/c (wild-type) mice, 25 mg/kg daily oral, 10 days. The procedure:
Thus, ACPHS-14 was used as a representative “first component” of the present disclosure in order to assess the feasibility of using β-carotene as the “second component” in the co-drug strategy. Accordingly, an experiment was conducted to determine whether partial reduction in functional rhodopsin (opsin with conjugated 11-cis-retinal) induced by oral ACPHS-14 in mice can be compensated by co-administration with β-carotene. An experiment was also conducted to determine whether co-administration of ACPHS-14 and β-carotene can restore retinal function as can be assessed by electroretinography (ERG). It was previously reported that ACPHS-14 can induce a pronounced reduction in serum RBP4 along with stabilization of TTR tetramers (Cioffi, C. L. et al. 2021).
The experiments were conducted in Balb/c mice. Three groups of mice were used: control untreated mice; mice treated with ACPHS-14; and mice treated with the ACPHS-14 plus β-carotene combination. […] Following compound dosing, retinal function in the mice was assessed by ERG as previously described (Racz, B. et al. 2018). […] Rhodopsin was measured spectrophotometrically in the retinal extracts using a previously published protocol (Racz, B. et al. 2018).

For series [3] the following is noted: in vivo; cited from earlier work.
For a further series, the target named is RBP4 (Homo sapiens, UniProt P02753). As to conditions: cited from earlier work.
Another series has as its target TTR tetramers (Homo sapiens, UniProt P02766). The settings on record: cited from earlier work.
The conditions of series [4]: cited from earlier work. The source holds these as a separate data set.
The conditions of series [5]: ATTR-CM patients, Phase III; cited from earlier work.
The conditions of series [6]: patients treated for TTR amyloidosis; cited from earlier work.
For series [7] the following is noted: Phase 2, dry AMD patients; no ocular AEs with placebo; cited from earlier work.
For series [8] the following is noted: long-term use in cancer patients; cited from earlier work.

As to `CC(=O)N1CCc2c(C(=O)N3CCC(c4ccc(F)c(F)c4C(F)(F)F)CC3)n[nH]c2C1` [Tinlarebant], the “ocular adverse effects in a subset of patients” value in series [1] is reported as “asymptomatic delayed dark adaptation (measured only instrumentally) or symptomatic xanthopsia”.

For the molecule `[2H]C([2H])([2H])C(/C=C/C=C(C)/C=C/C1=C(C)CCCC1(C)C)=C\C=O` [C20-D3-retinaldehyde], in [2], the “rate of dimer formation relative to unlabeled retinaldehyde (times less rapidly)” value is on record as 12 times and the “reduction of bisretinoid A2E formation” value is recorded as 7 fold.

For the molecule `Cc1n[nH]c(C)c1N1CCN(c2cc(C(=O)O)ccc2F)CC1` [ACPHS-14], the bisretinoid reduction entry in the series on Abca4-/- mouse model (Abca4-/- mouse model) is “excellent bisretinoid reduction”. Further, the “reduction of scotopic ERG a-wave amplitude in comparison to untreated mice” value in the series with Balb/c mice is 45%. For the same molecule, in the series with serum RBP4, the RBP4-lowering efficacy result was “excellent RBP4-lowering efficacy; also recorded: significantly decreasing the concentration of serum RBP4”. Besides, the “rhodopsin in comparison to untreated mice” value in the series with rhodopsin is recorded as “significantly reduced rhodopsin”. In addition, in series [3], the oral bioavailability result is given as “orally bioavailable”. Also, the “competition with retinol binding to RBP4” value at RBP4 is listed as “does not compete with retinol binding to RBP4”. In addition, at TTR tetramers, the “stabilization of TTR tetramers” value is given as “inducing stabilization of TTR tetramers”.

As to `O=C(O)c1ccc2nc(-c3cc(Cl)cc(Cl)c3)oc2c1` [compound 3, tafamidis], the “patients who do not respond” value in series [4] was “Approximately 30%”. For the same molecule, in [5], the “reduction of the rate of cardiovascular-related hospitalizations compared to placebo controls” value is recorded as 32% and the “reduction of the risk of death compared to placebo controls” value is 30%.

With `[2H]C([2H])([2H])C(/C=C/C=C(C)/C=C/C1=C(C)CCCC1(C)C)=C\COC(C)=O` [C20-D3-retinyl acetate], in the series on Abca4-/- mouse model (Abca4-/- mice, model of Stargardt disease (STGD1)), the “inhibition of bisretinoid synthesis and normalization of complement system dysregulation in the retina” value is “effective”.

For patisiran, the “ocular symptoms in clinical use” value in [6] was “symptoms of night blindness in a subset of patients”.

Turning to `CC1=C(/C=C/C(C)=C/C=C/C(C)=C/C(=O)Nc2ccc(O)cc2)C(C)(C)CCC1` [fenretinide], the “drug-treated patients with reversible reduction in dark adaptation” value in [7] was ~ 10%. Also, the “yearly prevalence of transient and reversible ocular AEs such as diminished dark adaptation” value in series [8] is 5.8-6.7%.
